Assays:
[1] = Fluorescent determination (emission wave length); assay type: physicochemical; settings: for emitted light wave length: ethyl acetate
Text: As a result of fluorescent determination at a wave length of excitation light of 356 nm, the emitted light of 520 nm in wave length with ethyl acetate was observed.
As a result of fluorescent determination at a wave length of excitation light of 357 nm, the emitted light of 525 nm in wave length of this substance with ethyl acetate was observed.
Onto a chromatographic column prepared by filling 400 g of silica gel (made by Merck Co. under the name of Art 7734) into a glass tube of 36 mm in inner diameter and 865 mm in length by using chloroform, a solution of 12 g of the crude product dissolved in 50 ml of chloroform was charged, and the absorbed product was subjected to elution by a flow of chloroform at a flow rate of 7 ml/min, thereby 1400 ml of a fraction showing one spot on the chromatogram were obtained. By condensing the fraction, 9 g of wet product were obtained. The wet product was dissolved in 30 ml of chloroform, and after adding 50 ml of hexane to the prepared solution, the mixture was cooled while stirring thereof, however, since no crystal was precipitated therefrom, the solvent was distilled off therefrom by using an evaporator and the residue was dried under vacuum to obtain 7 g of a solid, fluorescent substance in a yield of 68.2%. […] Its emission fluorescence was 521 nm by the excitation light of 358 nm.

mouse = settings: for reference; cited from earlier work
3T3 cells = test: Suppression of proliferation of mouse fibroblasts (3T3), Trypan blue living cell count; assay type: cell-based; settings: 5 μg/ml
Procedure: (§1) The activity of one of the present substances, 3-dansyloxyestradiol-17β-[[4-[p-{bis(2-chloroethyl)amino}phenyl]butyryloxy]]acetate in suppressing the proliferation of (1) the fibroblasts of mouse (3T3) and (2) transformed fibroblasts of mouse by SV-40 virus (3T3 SV-40) was studied by in vitro tests as follows:
(§2) Into a culture medium consisting of 90% by weight of DALBECCO MEM and 10% of bovine foetus serum, a solution of the test substance in dimethylsulfoxide at a rate of 5 μg/ml was added (dimethylsulfoxide being 1% of the culture medium). After adjusting the pH of the three culture media respectively to 6.5, 7.0 and 7.8, the target cells were implanted into each culture medium at a rate of 2×10^4 cells/ml, and the culture media were incubated at 37° C. in an atmosphere of 5% of carbon dioxide for 3 and 6 days. After ending the incubation, the number of living cells which were not dyed with Trypan blue enumerated in the cultured medium to calculate the rate of suppression of the proliferation of the fibroblasts as follows: [formula] where Nc is the number of the living fibroblasts in control group and Nt is the number of living fibroblasts in the test group both in the unit area.
(§3) The activity of one of the present substance, 3-dansyloxyestradiol-17β-[[2-[p-{bis(2-chloroethyl)amino}phenyl]acetoxy]]acetate in suppressing the proliferation of mouse fibroblasts (3T3) and SV-40 virus-transformed fibroblasts (3T3 SV-40) was examined by the same method as in Example 4 except for (1) the days of incubation of 3 and 5 days instead of 3 and 6 days in Example 4 and (2) the pH of the culture medium of 6.7 instead of 6.7, 7.0 and 7.8 in Example 4.

3T3 SV-40 cells = test: Suppression of proliferation of mouse fibroblasts transformed by SV-40 virus (3T3 SV-40), Trypan blue living cell count; assay type: cell-based; settings: for Rate of suppression (%): 3T3 SV-40 cells, 5 μg/ml
Procedure: as §1, §2, §3

FLOW 4000 cell = test: Suppression of proliferation of human normal renal cells (FLOW 4000); assay type: cell-based; settings: 5 μg/ml, 37° C.
Procedure: as §2
(§4) The activity of one of the present substance, 3-dansyloxyestradiol-17β-[[4-[p-{bis(2-chloroethyl)amino}phenyl]butyryloxy]]acetate, in suppressing the proliferation of (1) human nomal renal cells (FLOW 4000) and (2) human renal cancer cells (RC) was examined as follows:
(§5) Into the same culture medium as in Example 4, a solution of the test substance dissolved in dimethylsulfoxide was added at a rate of 5 μg/ml (dimethylsulfoxide being 1% of the culture medium), and after adjusting the three culture media respectively to pH of 6.5, 7.0 and 7.8, the cells were implanted into each culture medium at a rate of 2×10^4 cells/ml, and the culture media implanted were incubated for 6 days at 37° C. in an atmosphere of 5% of carbon dioxide. The rate of suppression of the proliferation of the implanted cells was calculated by the same formula as in Example 4, the results being shown in Table 2.

RC cell = test: Suppression of proliferation of human renal cancer cells (RC); assay type: cell-based; settings: 5 μg/ml, 37° C.; for Rate of suppression (%): RC cell
Procedure: as §2, §4, §5

[2] = tested on: 3T3 SV-40 cells vs 3T3 cells; test: Intaking of test substance by 3T3 SV-40 cells compared to 3T3 cells, fluorescence microscope; assay type: cell-based, mouse
Procedure: Intaking of one of the present substances, 3-dansyloxyestradiol-17β-[[4-[p-{bis(2-chloroethyl)amino}phenyl]butyryloxy]]acetate, by mouse fibroblasts (3T3) and mouse transformed fibroblasts by SV-40 virus (3T3 SV-40) was examined with a fluorescence microscope under the following conditions:
Concentration of the test substance: 10 and 50 μg/ml
pH of culture medium: 6.5 and 7.8
Number of implanted cells: 2×10^4 cells/ml
Temperature and days of incubation: 37° C. for 5 days
Fixation: by aqueous 2.5% glutaraldehyde phosphate buffer for 90 minutes
Examination: by using a microscope (made by Olympus, BHS-RFK) with an exciting filter UGI and auxiliary absorption filter Y-475.
In the similar manner to that in Example 6, intaking of one of the present substances, 3-dansyloxyestradiol-17β-[[2-[p-{bis(2-chloroethyl)amino}phenyl]acetoxy]]acetate by mouse fibroblast (3T3) and mouse transformed fibroblast by SV-40 virus (3T3 SV-40) was studied.

[3] = tested on: human renal cancer cells (RC) vs normal human renal cells (FLOW 4000); test: Intaking of test substance by RC cells compared to FLOW 4000 cells, fluorescence microscope; assay type: cell-based; settings: Example 8; 37° and 40° C. incubation
Procedure: In the similar manner to that in Example 7, intaking of one of the present substances, 3-dansyloxyestradiol-17β-[[4-[p-{bis(2-chloroethyl)amino}phenyl]butyryloxy]]acetate by the normal human renal cells (FLOW 4000) and the human renal cancer cells (RC) was examined by using the same fluorescence microscope as in Example 7. The incubation of the implanted cells was carried out at 37° and 40° C.

[4] = pH 6.7, 3 days, 37° C. (Example 6)
[5] = pH 6.7, 5 days, 37° C. (Example 6)

SMILES: CN(C)c1cccc2c(S(=O)(=O)Oc3ccc4c(c3)CC[C@@H]3[C@@H]4CC[C@]4(C)[C@H](OC(=O)COC(=O)CCCc5ccc(N(CCCl)CCCl)cc5)CC[C@@H]34)cccc12 [3-dansyloxyestradiol-17α-[[4-[p-{bis(2-chloroethyl)amino}phenyl]butyryloxy]]acetate]
- emitted light wave length ([1]; excitation light 357 nm): 525 nm

SMILES: CN(C)c1cccc2c(S(=O)(=O)Oc3ccc4c(c3)CC[C@@H]3[C@@H]4CC[C@]4(C)[C@@H](OC(=O)COC(=O)c5ccc(N(CCCl)CCCl)cc5)CC[C@@H]34)cccc12 [3-dansyloxyestradiol-17β-[[1-[p-{bis(2-chloroethyl)amino}phenyl]carbonyloxy]]acetate]
- emission fluorescence ([1]; excitation light 358 nm): 521 nm

SMILES: O=C(O)CCCc1ccc(N(CCCl)CCCl)cc1 [chlorambucil]
- LD50 (mouse): 20 mg/kg body weight

SMILES: CN(C)c1cccc2c(S(=O)(=O)Oc3ccc4c(c3)CC[C@@H]3[C@@H]4CC[C@]4(C)[C@@H](OC(=O)COC(=O)CCCc5ccc(N(CCCl)CCCl)cc5)CC[C@@H]34)cccc12 [3-dansyloxyestradiol-17β-[[4-[p-{bis(2-chloroethyl)amino}phenyl]butyryloxy]]acetate]
- Rate of suppression (%) (3T3 cells; pH 6.5, 3 days, 37° C.): 16.8%
- Rate of suppression (%) (3T3 cells; pH 6.5, 6 days, 37° C.): 14.76%
- Rate of suppression (%) (3T3 cells; pH 7.0, 3 days, 37° C.): 6.45%
- Rate of suppression (%) (3T3 cells; pH 7.0, 6 days, 37° C.): 20.03%
- Rate of suppression (%) (3T3 cells; pH 7.8, 3 days, 37° C.): 7.87%
- Rate of suppression (%) (3T3 cells; pH 7.8, 6 days, 37° C.): 11.30%
- Rate of suppression (%) (3T3 SV-40 cells; pH 6.5, 3 days, 37° C.): 64.19%
- Rate of suppression (%) (3T3 SV-40 cells; pH 6.5, 6 days, 37° C.): 91.60%
- Rate of suppression (%) (3T3 SV-40 cells; pH 7.0, 3 days, 37° C.): 55.80%
- Rate of suppression (%) (3T3 SV-40 cells; pH 7.0, 6 days, 37° C.): 85.88%
- Rate of suppression (%) (3T3 SV-40 cells; pH 7.8, 3 days, 37° C.): 31.60%
- Rate of suppression (%) (3T3 SV-40 cells; pH 7.8, 6 days, 37° C.): 38.80%
- activity of suppressing the proliferation of transformed cells by SV-40 virus (in words) (3T3 SV-40 cells; Example 4, pH range of from 6.5 to 7.8, 5 μg/ml): clearly showed an activity of suppressing the proliferation of transformed cells by SV-40 virus
- Rate of suppression (%) (FLOW 4000 cell; pH 6.5, 6 days): 27.83%
- Rate of suppression (%) (FLOW 4000 cell; pH 7.0, 6 days): 14.00%
- Rate of suppression (%) (FLOW 4000 cell; pH 7.8, 6 days): -1.10%
- suppression of the proliferation of human renal cancer cells (RC) (in words) (RC cell; Example 5, 6 days): clearly suppressed the proliferation of the human renal cancer cells (RC)
- Rate of suppression (%) (RC cell; pH 6.5, 6 days): 54.54%
- Rate of suppression (%) (RC cell; pH 7.0, 6 days): 46.68%
- Rate of suppression (%) (RC cell; pH 7.8, 6 days): 22.39%
- Intaking of the test substance by 3T3 SV-40 cells compared to 3T3 cells ([2]; Example 7, 10 and 50 μg/ml, pH 6.5 and 7.8, 37° C., 5 days): remarkably recognized as compared to that by 3T3 cells
- Intaking of the test substance by RC cells compared to FLOW 4000 cells [3]: remarkable as compared to that by the normal human cells (FLOW 4000) at both 37° and 40 °C
- emitted light wave length ([1]; excitation light 356 nm): 520 nm

SMILES: CN(C)c1cccc2c(S(=O)(=O)Oc3ccc4c(c3)CC[C@@H]3[C@@H]4CC[C@]4(C)[C@@H](OC(=O)COC(=O)Cc5ccc(N(CCCl)CCCl)cc5)CC[C@@H]34)cccc12 [3-Dansyloxyestradiol-17β-[[2-[p-{bis(2-chloroethyl)amino}phenyl]acetoxy]]acetate]
- Rate of suppression (%) (3T3 cells; [4]): 25.24%
- Rate of suppression (%) (3T3 cells; [5]): 53.28%
- Rate of suppression (%) (3T3 SV-40 cells; [4]): 55.72%
- Rate of suppression (%) (3T3 SV-40 cells; [5]): 85.86%
- Intaking of the test substance by 3T3 SV-40 compared to 3T3 ([2]; Example 9, FIG. 8: 5 μg/ml, pH 6.5, 4 days): remarkable as compared to that by 3T3

— patent publication US4938897A (Kureha Kagaku Kogyo Kabushiki Kaisha, priority 1985, dated 1990)
